One experiment has as its system native human plasma PAM. Put plainly: Formation of bio-ADM by native human PAM in Li-Heparin plasma, with and without exogenous ADM-Gly. The experiment is classed as biochemical. The conditions noted are these: without addition of exogenous ADM-Gly; HAM8101 300 μg/mL; 90 minutes. As for the experimental part:
In a further experiment we investigated the formation of bio-ADM from ADM-Gly by native human plasma PAM and the influence of N-terminal- and mid-regional anti-adrenomedullin antibodies.
Human Li-Heparin plasma (pool of 3 specimen) was used as source of human native PAM. The amidation reaction was performed in a total volume of 120 μl at 37° C. 96 μl of plasma were spiked with either HAM8101 (375 μg/mL final concentration) or ADM-Gly (5 ng/mL final concentration) or with both. As control, equal volumes of 100 mM Tris-HCl, pH 7.5 were added to untreated plasma. The prepared samples were allowed to chill for 15 minutes at room temperature. The amidation reaction was started by addition of 24 μl of PAM-reaction buffer resulting in final concentrations of 2 mM L-Ascorbate and 5 μM CuSO4, respectively. The final concentrations of HAM8101 and ADM-Gly were 300 μg/mL and 4 ng/mL, respectively. The reaction was allowed to proceed for 90 minutes at 37° C. After 0 min, 30 min, 60 min and 90 min of incubation, the reaction was stopped by addition of 20 mM EDTA (final concentration). The concentration of bio-ADM in the reaction sample was quantified using the Sphingotest® bio-ADM immunoassay as described recently (Weber et al. 2017. JALM 2(2): 222-233).

In experiment [1] the test system is human native PAM. The experiment in a line: Native human PAM activity in human serum with NT- and MR-anti-ADM antibodies. The experiment is classed as biochemical. The conditions noted are these: antibody 100 μg/mL; FIG. 9. As for the experimental part: Human serum was used as source of human native PAM. Each sample (20 μl) was diluted two-fold in 100 mM Tris-HCl in duplicate. The amidation reaction was initiated by addition of 160 μl of NT-ADM antibodies (HAM8101, AK1373, AK1388, AK1398 or AK1434) or MR-ADM antibodies (ADM43, ADM38, ADM41, ADM2901, ADM2902 and ADM2903) containing PAM-reaction buffer (100 mM Tris-HCl, pH 7.5, 6.25 μM CuSO4, 2.5 mM Ascorbate, 125 μg/mL Catalase, 62.5 μM Amastatin, 250 μM Leupeptin, and 36 ng/mL synthetic 1-53 Adrenomedullin-Gly as substrate). The final antibody concentrations were 100 μg/mL, respectively. Afterwards, 100 μl of each individual reaction of duplicated samples were combined and transferred into 20 μl of 200 mM EDTA to terminate the amidation reaction and thus to generate a t=0 minutes reaction time-point followed by incubation at 37° C. for 40 minutes. Afterwards the non-terminated reactions were stopped with 10 μl of 200 mM EDTA. To determine the PAM activity in NT-ADM antibody containing samples, bio-ADM was quantified in each reaction using the Sphingotest® bio-ADM immunoassay (Weber et al. 2017, supra). The MR-ADM antibody containing reaction was transferred to an alternative bio-ADM assay (description below). A control reaction without antibodies was measured in both bio-ADM assays. For each sample the difference between t=40 min and t=0 min bio-ADM concentration was calculated. […]

The test system of experiment [2] is human native PAM. Put plainly: bio-ADM maturation activity (AMA) in samples of healthy subjects before and after administration. The experiment is classed as in vivo. As for the experimental part: Human serum was used as source of human native PAM. Each sample (20 μl) was diluted two-fold in 100 mM Tris-HCl in duplicate. The amidation reaction was initiated by addition of 160 μl of NT-ADM antibodies (HAM8101, AK1373, AK1388, AK1398 or AK1434) or MR-ADM antibodies (ADM43, ADM38, ADM41, ADM2901, ADM2902 and ADM2903) containing PAM-reaction buffer (100 mM Tris-HCl, pH 7.5, 6.25 μM CuSO4, 2.5 mM Ascorbate, 125 μg/mL Catalase, 62.5 μM Amastatin, 250 μM Leupeptin, and 36 ng/mL synthetic 1-53 Adrenomedullin-Gly as substrate). The final antibody concentrations were 100 μg/mL, respectively. Afterwards, 100 μl of each individual reaction of duplicated samples were combined and transferred into 20 μl of 200 mM EDTA to terminate the amidation reaction and thus to generate a t=0 minutes reaction time-point followed by incubation at 37° C. for 40 minutes. Afterwards the non-terminated reactions were stopped with 10 μl of 200 mM EDTA. To determine the PAM activity in NT-ADM antibody containing samples, bio-ADM was quantified in each reaction using the Sphingotest® bio-ADM immunoassay (Weber et al. 2017, supra). The MR-ADM antibody containing reaction was transferred to an alternative bio-ADM assay (description below). A control reaction without antibodies was measured in both bio-ADM assays. For each sample the difference between t=40 min and t=0 min bio-ADM concentration was calculated. PAM activity is described as ng bio-ADM formed per hour and L of sample and was normalized to the reaction without antibody addition, which was set as 100%.
The formation of bio-ADM from ADM-Gly by recombinant human PAM enzyme and the invivo influence of the N-terminal anti-Adrenomedullin antibody HAM8101 using samples from healthy subjects that received HAM8101 was investigated by measuring the bio-ADM maturation activity (AMA).
Samples from n=3 subjects from each administration group before and 1 hour after administration of HAM8101 were used. Activity was determined as described for Serum samples in example 5b). The assay was calibrated using recombinant human PAM of known activity (InVivo Biotech Services GmbH, Hennigsdorf). Calibrators, controls and samples were treated in the same manner. The produced bio-ADM in the reaction-samples was quantified using the Sphingotest® bio-ADM assay (Weber et al., 2017). For each sample the difference of the t=40 min and t=0 min signal (RLUs, relative light units) was calculated and the signal (RLU(t40−t0 min)) of the calibrator was used to determine the AMA in tested serum samples. AMA is expressed as ng bio-ADM formed per hour and Liter of sample (ng/[h*L]).

Experiment [3] relates to CLP-induced sepsis in mice. The conditions noted are these: pre-treatment, cited from earlier work.

Like-named read-outs stand apart in the source and are kept apart here.

Turning to “HAM8101: humanized N-terminal anti-ADM antibody, heavy chain SEQ ID No. 35, light chain SEQ ID No. 36”, in the experiment with native human plasma PAM, the “change in bio-ADM concentration” value was “No change in bio-ADM concentration”. The “influence on amidating activity compared within the tested antibodies of the same region” value with human native PAM [1] was “showed the strongest influence”. The “AMA increased by” value with human native PAM [2] (group 1 (0.5 mg/kg), after 1 hour) is “approximately 60%”; in the experiment with human native PAM [2] (group 1 (0.5 mg/kg), after 4 hours), roughly 40%; with human native PAM [2] (group 1 (0.5 mg/kg), after 24 hours) it was roughly 52%; in the experiment with human native PAM [2] (group 2 (2 mg/kg), after 1 hour) it was “approximately 27%”; in the experiment on human native PAM [2] (group 2 (2 mg/kg), after 4 hours), roughly 25%; with human native PAM [2] (group 2 (2 mg/kg), after 24 hours), roughly 40%. Besides, the “AMA increased by” value was “approximately 65%” in the experiment with human native PAM [2] (group 3 (8 mg/kg), after 1 hour); roughly 48% in the experiment with human native PAM [2] (group 3 (8 mg/kg), after 4 hours); “approximately 60%” in the experiment on human native PAM [2] (group 3 (8 mg/kg), after 24 hours). Further, the 7-day survival in experiment [3] (repeated dose administration, control 0%) is on record as 40%; in experiment [3] (single dose administration, control 10%), 50%.

Values taken from patent US12662530B2, “Anti-ADM-antibodies binding to the free N-terminus for accelerated transition of ADM-Gly to bio-ADM in patients with ADM-Gly/ bio-ADM ratio above a threshold and combination with vitamin C” (SphingoTec GmbH, priority 2020, dated 2026).
